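Protocol summary: plate cells (96-well), add compound at 5 concentrations, incubate 48 h, interpolate endpoints linearly. TGI: total growth inhibition.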
Key:
Experiment in all cases: DTP human tumour cell line panel, 48 h
786-0 renal = system: 786-0 renal
A498 renal = system: A498 renal
A549 NSCLC = system: A549 NSCLC
ACHN renal = system: ACHN renal
BT-549 breast = system: BT-549 breast
CAKI-1 renal = system: CAKI-1 renal
CCRF-CEM leukemia = system: CCRF-CEM leukemia
COLO 205 colon = system: COLO 205 colon
DU-145 prostate = system: DU-145 prostate
EKVX NSCLC = system: EKVX NSCLC
HCC-2998 colon = system: HCC-2998 colon
HCT-116 colon = system: HCT-116 colon
HCT-15 colon = system: HCT-15 colon
HL-60(TB) leukemia = system: HL-60(TB) leukemia
HOP-62 NSCLC = system: HOP-62 NSCLC
HOP-92 NSCLC = system: HOP-92 NSCLC
HS 578T breast = system: HS 578T breast
HT29 colon = system: HT29 colon
IGROV1 ovarian = system: IGROV1 ovarian
K-562 leukemia = system: K-562 leukemia
KM12 colon = system: KM12 colon
LOX IMVI melanoma = system: LOX IMVI melanoma
M14 melanoma = system: M14 melanoma
MALME-3M melanoma = system: MALME-3M melanoma
MCF7 breast = system: MCF7 breast
MDA-MB-231 breast = system: MDA-MB-231 breast
MDA-MB-435 = system: MDA-MB-435
MDA-N = system: MDA-N
MOLT-4 leukemia = system: MOLT-4 leukemia
NCI-H226 lung = system: NCI-H226 lung
NCI-H23 lung = system: NCI-H23 lung
NCI-H460 lung = system: NCI-H460 lung
NCI-H522 lung = system: NCI-H522 lung
NCI/ADR-RES ovarian = system: NCI/ADR-RES ovarian
OVCAR-3 ovarian = system: OVCAR-3 ovarian
OVCAR-4 ovarian = system: OVCAR-4 ovarian
OVCAR-5 ovarian = system: OVCAR-5 ovarian
OVCAR-8 ovarian = system: OVCAR-8 ovarian
PC-3 prostate = system: PC-3 prostate
RXF 393 renal = system: RXF 393 renal
SF-268 CNS = system: SF-268 CNS
SF-295 CNS = system: SF-295 CNS
SF-539 CNS = system: SF-539 CNS
SK-MEL-28 melanoma = system: SK-MEL-28 melanoma
SK-MEL-5 melanoma = system: SK-MEL-5 melanoma
SK-OV-3 ovarian = system: SK-OV-3 ovarian
SN12C renal = system: SN12C renal
SNB-19 CNS = system: SNB-19 CNS
SR leukemia = system: SR leukemia
SW-620 colon = system: SW-620 colon
T-47D breast = system: T-47D breast
TK-10 renal = system: TK-10 renal
U251 CNS = system: U251 CNS
UACC-257 melanoma = system: UACC-257 melanoma
UACC-62 melanoma = system: UACC-62 melanoma
UO-31 renal = system: UO-31 renal
RPMI-8226 leukemia = system: RPMI-8226 leukemia
SK-MEL-2 melanoma = system: SK-MEL-2 melanoma
SNB-75 CNS = system: SNB-75 CNS

For COc1ccc2nc3c([N+](=O)[O-])ccc4c3c(c2c1)NCCN4C, the TGI (786-0 renal) was 3.37 µM, the TGI (A498 renal) was 3.85 µM and the TGI (A549 NSCLC) was 2.57 µM. It also gave a TGI (ACHN renal) of 5.92 µM, a TGI (BT-549 breast) of 11.4 µM and a TGI (CAKI-1 renal) of 9.13 µM. It also gave a TGI (CCRF-CEM leukemia) of over 100 µM, a TGI (COLO 205 colon) of 2.54 µM and a TGI (DU-145 prostate) of 6.92 µM. For the same compound, the TGI (EKVX NSCLC) was 6.61 µM, the TGI (HCC-2998 colon) was 4.63 µM and the TGI (HCT-116 colon) was 2.88 µM. The TGI (HCT-15 colon) was 2.96 µM, the TGI (HL-60(TB) leukemia) was over 100 µM and the TGI (HOP-62 NSCLC) was 3.16 µM. The TGI (HOP-92 NSCLC) was 6.44 µM, the TGI (HS 578T breast) was 5.21 µM and the TGI (HT29 colon) was 12.4 µM. The TGI (IGROV1 ovarian) was 4.52 µM, the TGI (K-562 leukemia) was over 100 µM and the TGI (KM12 colon) was 23.2 µM. The TGI (LOX IMVI melanoma) was 4.71 µM, the TGI (M14 melanoma) was 2.8 µM and the TGI (MALME-3M melanoma) was 2.6 µM. It also gave a TGI (MCF7 breast) of 8.75 µM, a TGI (MDA-MB-231 breast) of 3.01 µM and a TGI (MDA-MB-435) of 2.4 µM. It also gave a TGI (MDA-N) of 2.21 µM, a TGI (MOLT-4 leukemia) of 27 µM and a TGI (NCI-H226 lung) of 3.59 µM. For the same compound, the TGI (NCI-H23 lung) was 6.39 µM, the TGI (NCI-H460 lung) was 1.48 µM and the TGI (NCI-H522 lung) was 3.31 µM. The TGI (NCI/ADR-RES ovarian) was 7.73 µM, the TGI (OVCAR-3 ovarian) was 5.62 µM and the TGI (OVCAR-4 ovarian) was 3.57 µM. It also gave a TGI (OVCAR-5 ovarian) of 23 µM, a TGI (OVCAR-8 ovarian) of 14.9 µM and a TGI (PC-3 prostate) of 4.54 µM. It also gave a TGI (RXF 393 renal) of 0.878 µM, a TGI (SF-268 CNS) of 7.63 µM and a TGI (SF-295 CNS) of 7.58 µM. For the same compound, the TGI (SF-539 CNS) was 2.62 µM, the TGI (SK-MEL-28 melanoma) was 6.5 µM and the TGI (SK-MEL-5 melanoma) was 2.86 µM. For the same compound, the TGI (SK-OV-3 ovarian) was 9.23 µM, the TGI (SN12C renal) was 9.29 µM and the TGI (SNB-19 CNS) was 8.77 µM. For the same compound, the TGI (SR leukemia) was over 100 µM, the TGI (SW-620 colon) was 4.76 µM and the TGI (T-47D breast) was 7.73 µM. It also gave a TGI (TK-10 renal) of 51.9 µM, a TGI (U251 CNS) of 13.4 µM and a TGI (UACC-257 melanoma) of 10.1 µM. For the same compound, the TGI (UACC-62 melanoma) was 2.88 µM and the TGI (UO-31 renal) was 2.82 µM.
Work on c1cc(-c2sc(-c3ccncc3)c(-c3ccncc3)c2-c2ccncc2)ccn1 yielded a TGI (786-0 renal) of 33 µM, a TGI (A498 renal) of 26.7 µM and a TGI (A549 NSCLC) of 45.8 µM. For the same compound, the TGI (ACHN renal) was 42.9 µM, the TGI (BT-549 breast) was 42 µM and the TGI (CAKI-1 renal) was over 100 µM. It also gave a TGI (COLO 205 colon) of 27.4 µM, a TGI (DU-145 prostate) of 76 µM and a TGI (EKVX NSCLC) of 43.9 µM. The TGI (HCC-2998 colon) was 19.6 µM, the TGI (HCT-116 colon) was 28.5 µM and the TGI (HCT-15 colon) was 56.7 µM. It also gave a TGI (HOP-62 NSCLC) of 78.1 µM, a TGI (HOP-92 NSCLC) of 29.6 µM and a TGI (HS 578T breast) of 73.5 µM. For the same compound, the TGI (HT29 colon) was 27.7 µM, the TGI (IGROV1 ovarian) was over 100 µM and the TGI (K-562 leukemia) was over 100 µM. For the same compound, the TGI (KM12 colon) was 65.5 µM, the TGI (LOX IMVI melanoma) was 30.8 µM and the TGI (M14 melanoma) was 31.2 µM. The TGI (MALME-3M melanoma) was 32.5 µM, the TGI (MCF7 breast) was 52 µM and the TGI (MDA-MB-231 breast) was 31.2 µM. For the same compound, the TGI (MDA-MB-435) was 33.4 µM, the TGI (MDA-N) was 29 µM and the TGI (MOLT-4 leukemia) was over 100 µM. The TGI (NCI-H226 lung) was 30.4 µM, the TGI (NCI-H23 lung) was 31.9 µM and the TGI (NCI-H460 lung) was 23.8 µM. The TGI (NCI-H522 lung) was 35.9 µM, the TGI (NCI/ADR-RES ovarian) was 82 µM and the TGI (OVCAR-3 ovarian) was 44.4 µM. It also gave a TGI (OVCAR-4 ovarian) of over 100 µM, a TGI (OVCAR-5 ovarian) of 47.2 µM and a TGI (OVCAR-8 ovarian) of over 100 µM. It also gave a TGI (PC-3 prostate) of 57.4 µM, a TGI (RPMI-8226 leukemia) of over 100 µM and a TGI (RXF 393 renal) of 33.4 µM. The TGI (SF-268 CNS) was 37.7 µM, the TGI (SF-295 CNS) was 41.6 µM and the TGI (SF-539 CNS) was 35 µM. The TGI (SK-MEL-2 melanoma) was 48.1 µM, the TGI (SK-MEL-28 melanoma) was 46.1 µM and the TGI (SK-MEL-5 melanoma) was 28.6 µM. The TGI (SK-OV-3 ovarian) was 54 µM, the TGI (SN12C renal) was 46.5 µM and the TGI (SNB-19 CNS) was 55.9 µM. For the same compound, the TGI (SNB-75 CNS) was 40.9 µM, the TGI (SR leukemia) was over 100 µM and the TGI (SW-620 colon) was 59.5 µM. For the same compound, the TGI (T-47D breast) was over 100 µM, the TGI (TK-10 renal) was 32.9 µM and the TGI (U251 CNS) was 27.8 µM. For the same compound, the TGI (UACC-257 melanoma) was 31.8 µM, the TGI (UACC-62 melanoma) was 27.8 µM and the TGI (UO-31 renal) was 30 µM.

— PubChem BioAssay (NCI)
